Target: T1, TAP2 Antigen peptide transporter 2 (Homo sapiens, UniProt Q03519)
T1 construct: Cells were resuspended in cold PBS on ice and sonicated with a probe sonicator to achieve lysis; endogenous in cells
T1 sequence (Q03519 1-686): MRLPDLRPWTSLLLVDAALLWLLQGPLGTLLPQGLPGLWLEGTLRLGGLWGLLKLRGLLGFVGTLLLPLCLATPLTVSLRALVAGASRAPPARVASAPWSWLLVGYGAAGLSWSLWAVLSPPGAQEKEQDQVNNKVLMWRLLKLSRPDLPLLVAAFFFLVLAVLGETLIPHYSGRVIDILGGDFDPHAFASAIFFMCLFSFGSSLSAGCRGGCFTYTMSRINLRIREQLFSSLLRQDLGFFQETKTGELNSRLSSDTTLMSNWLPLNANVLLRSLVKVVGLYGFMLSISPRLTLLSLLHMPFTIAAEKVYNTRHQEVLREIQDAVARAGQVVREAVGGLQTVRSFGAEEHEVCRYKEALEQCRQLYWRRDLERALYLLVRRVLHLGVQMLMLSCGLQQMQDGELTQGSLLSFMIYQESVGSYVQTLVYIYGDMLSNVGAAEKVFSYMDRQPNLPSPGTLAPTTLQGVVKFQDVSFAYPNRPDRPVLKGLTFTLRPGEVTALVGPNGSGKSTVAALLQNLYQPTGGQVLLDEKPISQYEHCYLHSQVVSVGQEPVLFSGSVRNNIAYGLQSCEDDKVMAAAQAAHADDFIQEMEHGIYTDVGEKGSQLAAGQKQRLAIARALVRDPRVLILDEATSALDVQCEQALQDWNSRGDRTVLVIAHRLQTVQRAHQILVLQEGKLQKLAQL
T1 sequence (Q03518 1-748 partner): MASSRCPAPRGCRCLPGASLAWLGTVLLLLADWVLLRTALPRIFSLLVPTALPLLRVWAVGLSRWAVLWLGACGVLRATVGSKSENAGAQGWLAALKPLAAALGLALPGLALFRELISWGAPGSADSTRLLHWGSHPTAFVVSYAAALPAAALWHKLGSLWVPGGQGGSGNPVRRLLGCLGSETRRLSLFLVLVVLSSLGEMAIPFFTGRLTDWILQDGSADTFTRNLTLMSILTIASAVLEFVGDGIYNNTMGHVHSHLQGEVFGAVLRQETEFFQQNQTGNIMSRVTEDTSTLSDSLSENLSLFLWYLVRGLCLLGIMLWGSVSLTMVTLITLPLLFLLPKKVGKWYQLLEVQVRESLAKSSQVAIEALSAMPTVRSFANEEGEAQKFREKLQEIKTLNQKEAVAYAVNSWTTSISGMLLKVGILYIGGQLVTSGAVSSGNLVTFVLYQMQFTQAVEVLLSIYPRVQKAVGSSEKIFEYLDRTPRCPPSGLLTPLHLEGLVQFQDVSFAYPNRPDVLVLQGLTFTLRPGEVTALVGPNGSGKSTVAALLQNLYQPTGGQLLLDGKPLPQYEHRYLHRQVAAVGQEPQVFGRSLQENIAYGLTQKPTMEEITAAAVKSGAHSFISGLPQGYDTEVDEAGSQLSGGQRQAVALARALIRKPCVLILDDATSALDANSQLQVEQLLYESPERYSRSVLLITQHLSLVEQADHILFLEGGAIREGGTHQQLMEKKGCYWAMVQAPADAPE
Assay: Cysteine liganding, probe competition
Format: binding
Conditions: for Liganded: TAP2 Res# 641, uniprot Q03519
Outline: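 Read-out is loss of desthiobiotin iodoacetamide labelling at cysteines, measured on streptavidin-enriched tryptic peptides. Compound preincubation ran 1 hr at 25° C in PBS lysate holding 5 mg/ml proteome before the probe was added.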

For O=C(CCl)Nc1cc(C(F)(F)F)cc(C(F)(F)F)c1 [KBO3], the Liganded was “YES”, the 100 ave (uniprot Q03519) was 70.57 and the “500 Max” value (uniprot Q03519) was 94.0932. The 500 ave (uniprot Q03519) was 94.0932 and the “100 Max” value (uniprot Q03519, in % (unit assumed)) was 71.9622.
With COc1ccc2c(c1)CCCN2C(=O)CCl [KB02] the Liganded was “YES”.

From US20200239530A1, “COMPOUNDS AND METHODS OF MODULATING PROTEIN DEGRADATION” (Vividion Therapeutics, Inc., priority 2017, published 2020)
